Test results as given in PMC11047580, “Design and Synthesis of Novel Amino and Acetamidoaurones with Antimicrobial Activities” (Antibiotics, 2024).
≈ marks a conversion by molar mass, not a printed value.

What was measured:
[1] = Cytotoxic assay (resazurin); conditions: human, A498 kidney epithelial cells
[2] = system: Candida tropicalis (DSM9419); test: MIC assay; assay type: cell-based; conditions: two-fold serial dilutions in liquid media, n = 2–3
Bacillus cereus (DSM31) = test: MIC assay; assay type: cell-based; conditions: two-fold serial dilutions in liquid media, n = 2–3
[3] = system: Clostridium perfringens (ATCC13124); test: microbe, parasite or virus in culture; assay type: cell-based; conditions: ATCC13124, read-out: MIC Clostridium perfringens (ATCC13124)
Candida auris (DSM21092) = test: MIC assay; assay type: cell-based; conditions: Candidozyma auris, two-fold serial dilutions in liquid media, n = 2–3
[4] = system: Helicobacter pylori (ATCC43504); test: MIC assay; assay type: cell-based; conditions: two-fold serial dilutions in liquid media, n = 2–3
[5] = system: Mycobacterium tuberculosis H37Rv (mc^26230); test: MIC assay (REMA); assay type: cell-based; conditions: REMA microdilution, n = 2–3
[6] = system: human cells (A498, BEAS-2B, Caco-2, HaCaT, HepG2, IMR-90); test: Cytotoxic assay, summary over the six human cell types
[7] = as above; conditions: human, 48 h exposure
[8] = system: Propionibacterium acnes (ATCC6919); test: MIC assay; assay type: cell-based; conditions: Cutibacterium acnes, two-fold serial dilutions in liquid media, n = 2–3
B. subtilis ATCC6633 = test: MIC assay; assay type: cell-based, Bacillus subtilis; conditions: Bacillus subtilis, ATCC6633; two-fold serial dilutions in liquid media; n = 2–3
[9] = system: Shigella flexneri (ATCC12022); test: MIC assay; assay type: cell-based; conditions: two-fold serial dilutions in liquid media, n = 2–3
S. aureus ATCC6538P = test: MIC assay; assay type: cell-based, Staphylococcus aureus; conditions: Staphylococcus aureus, ATCC6538P; two-fold serial dilutions in liquid media; n = 2–3
[10] = Cytotoxic assay (resazurin); conditions: human, Caco-2
[11] = system: Bacillus anthracis (CNR-charbon_04022); test: microbe, parasite or virus in culture; assay type: cell-based; conditions: read-out: MIC Bacillus anthracis (CNR-charbon_04022)
[12] = system: Francisella tularensis (NR-643); test: microbe, parasite or virus in culture; assay type: cell-based; conditions: read-out: MIC Francisella tularensis (NR-643)
[13] = system: normal lung fibroblasts IMR-90; conditions: human
[14] = system: Streptococcus pyogenes (DSM20565); test: MIC assay; assay type: cell-based; conditions: two-fold serial dilutions in liquid media, n = 2–3
[15] = system: Cryptococcus neoformans (DSM11959); test: MIC assay; assay type: cell-based; conditions: two-fold serial dilutions in liquid media, n = 2–3
Yersinia pestis (NR-641) = test: microbe, parasite or virus in culture; assay type: cell-based; conditions: read-out: MIC Yersinia pestis (NR-641)
[16] = Cytotoxic assay (resazurin); conditions: human, HepG2 liver cells
[17] = system: Enterococcus faecium (DSM20477); test: MIC assay; assay type: cell-based; conditions: two-fold serial dilutions in liquid media, n = 2–3
E. coli ATCC8739 = test: MIC assay; assay type: cell-based, Escherichia coli; conditions: Escherichia coli, ATCC8739; two-fold serial dilutions in liquid media; n = 2–3
[18] = system: Enterobacter cloacae (DSM30054); test: MIC assay; assay type: cell-based; conditions: two-fold serial dilutions in liquid media, n = 2–3
[19] = system: kidney epithelial cell line A498; conditions: human
[20] = system: Candida glabrata (DSM11226); test: MIC assay; assay type: cell-based; conditions: Nakaseomyces glabratus, two-fold serial dilutions in liquid media, n = 2–3
[21] = Cytotoxic assay (resazurin); conditions: human, BEAS-2B normal lung epithelial cells
[22] = system: Clostridium difficile (DSM1296); test: MIC assay; assay type: cell-based; conditions: Clostridioides difficile, two-fold serial dilutions in liquid media, n = 2–3
[23] = system: Mycobacterium abscessus S (CIP 104536^T); test: MIC assay (REMA); assay type: cell-based; conditions: REMA microdilution, n = 2–3
[24] = system: human cells (A498, BEAS-2B, Caco-2, HaCaT, HepG2, IMR-90)
[25] = system: Listeria monocytogenes (DSM20600); test: MIC assay; assay type: cell-based; conditions: two-fold serial dilutions in liquid media, n = 2–3
MRSA (ATCCBAA-1717) = test: MIC assay; assay type: cell-based, methicillin-resistant S. aureus; conditions: Staphylococcus aureus, read-out: MIC MRSA (ATCCBAA-1717)
[26] = Cytotoxic assay (resazurin); conditions: human, HaCaT normal epidermal keratinocytes
[27] = system: Aspergillus fumigatus (DSM819); test: MIC assay; assay type: cell-based; conditions: two-fold serial dilutions in liquid media, n = 2–3
[28] = system: Acinetobacter baumannii (DSM30007); test: MIC assay; assay type: cell-based; conditions: two-fold serial dilutions in liquid media, n = 2–3
M. smegmatis ATCC700084 = test: MIC assay (REMA); assay type: cell-based, Mycobacterium smegmatis; conditions: Mycolicibacterium smegmatis, ATCC700084, REMA microdilution, n = 2–3
[29] = system: normal epidermal keratinocytes (HaCaT); conditions: human

**Q.** With CC(=O)Nc1ccc2c(c1)C(=O)/C(=C/c1cccc(OCc3ccccc3)c1)O2 [Compound 10, (Z)-N-(2-(3-(benzyloxy)benzylidene)-3-oxo-2,3-dihydrobenzofuran-5-yl)acetamide] as the compound, how does the CC50 at 48 h [1] read?
**A.** The CC50 at 48 h was 398 µM.

**Q.** What about the MIC [2] of the same compound?
**A.** Its MIC is 100 µM (≈ 38.5 µg/mL).

**Q.** And the MIC (Bacillus cereus (DSM31))?
**A.** The MIC was 12.5 µM (≈ 4.82 µg/mL).

**Q.** And the MIC [3]?
**A.** Its MIC is over 100 µM.

**Q.** What about the MIC (Candida auris (DSM21092)) of the same compound?
**A.** Its MIC is 50 µM (≈ 19.3 µg/mL).

**Q.** What about the MIC [4] of the same compound?
**A.** The MIC was 12.5 µM (≈ 4.82 µg/mL).

**Q.** What about the MIC ([5]; Mycobacterium tuberculosis, H37RV) of the same compound?
**A.** Its MIC is over 100 µM.

**Q.** And the “MIC Mycobacterium tuberculosis H37Rv (mc^26230)” value [5]?
**A.** The value was “inactive”.

**Q.** And the “Highest TI” value ([6]; highest CC50 on human cells divided by MIC on S. aureus)?
**A.** The value was 37.7.

**Q.** What about the “Lowest TI” value ([6]; lowest CC50 on human cells divided by MIC on S. aureus) of the same compound?
**A.** Its value is 13.5.

**Q.** What about the CC50 at 48 h ([7]; Highest CC50, highest of the six human cell types) of the same compound?
**A.** Its CC50 at 48 h is 472 µM.

**Q.** And the CC50 at 48 h ([7]; Lowest CC50, lowest of the six human cell types)?
**A.** The CC50 at 48 h was 169 µM.

**Q.** What about the CC50 at 48 h ([7]; Mean CC50, mean over the six human cell types) of the same compound?
**A.** Its CC50 at 48 h is 322 µM.

**Q.** What about the MIC [8] of the same compound?
**A.** Its MIC is 100 µM (≈ 38.5 µg/mL).

**Q.** What about the MIC (B. subtilis ATCC6633) of the same compound?
**A.** The MIC was 3.12 µM (≈ 1.2 µg/mL).

**Q.** And the MIC [9]?
**A.** The MIC was 25 µM (≈ 9.64 µg/mL).

**Q.** And the MIC (S. aureus ATCC6538P)?
**A.** The MIC was 12.5 µM (≈ 4.82 µg/mL).

**Q.** What about the CC50 at 48 h [10] of the same compound?
**A.** The CC50 at 48 h was 200 µM.

**Q.** What about the MIC [11] of the same compound?
**A.** The MIC was 12.5 µM (≈ 4.82 µg/mL).

**Q.** And the MIC [12]?
**A.** Its MIC is 50 µM (≈ 19.3 µg/mL).

**Q.** And the “TI with MIC of 0.78 µM, IMR-90” value [13]?
**A.** The value was 540.2.

**Q.** What about the MIC [14] of the same compound?
**A.** Its MIC is 50 µM (≈ 19.3 µg/mL).

**Q.** And the MIC [15]?
**A.** The MIC was 25 µM (≈ 9.64 µg/mL).

**Q.** What about the MIC (Yersinia pestis (NR-641)) of the same compound?
**A.** Its MIC is 12.5 µM (≈ 4.82 µg/mL).

**Q.** And the CC50 at 48 h [16]?
**A.** Its CC50 at 48 h is 472 µM.

**Q.** And the MIC [17]?
**A.** Its MIC is 100 µM (≈ 38.5 µg/mL).

**Q.** And the MIC (E. coli ATCC8739)?
**A.** Its MIC is 12.5 µM (≈ 4.82 µg/mL).

**Q.** What about the MIC ([18]; Enterobacter cloacae, DSM30054) of the same compound?
**A.** Its MIC is over 100 µM.

**Q.** And the MIC [18]?
**A.** Its MIC is over 100 µM.

**Q.** What about the “TI with MIC of 0.78 µM, A498” value [19] of the same compound?
**A.** Its value is 510.5.

**Q.** And the MIC [20]?
**A.** Its MIC is 50 µM (≈ 19.3 µg/mL).

**Q.** What about the CC50 at 48 h [21] of the same compound?
**A.** The CC50 at 48 h was 169 µM.

**Q.** And the MIC [22]?
**A.** The MIC was 12.5 µM (≈ 4.82 µg/mL).

**Q.** What about the MIC ([23]; Mycobacteroides abscessus, CIP104536, S morphotype) of the same compound?
**A.** Its MIC is over 100 µM.

**Q.** And the “MIC Mycobacterium abscessus S (CIP 104536^T)” value ([23]; S morphotype)?
**A.** The value was “inactive”.

**Q.** And the “TI values, range over human cells” value [24]?
**A.** The value was 216.6-605.6.

**Q.** And the MIC [25]?
**A.** The MIC was 3.12 µM (≈ 1.2 µg/mL).

**Q.** And the MIC (MRSA (ATCCBAA-1717))?
**A.** Its MIC is 12.5 µM (≈ 4.82 µg/mL).

**Q.** What about the CC50 at 48 h [26] of the same compound?
**A.** The CC50 at 48 h was 268 µM.

**Q.** And the MIC ([27]; Aspergillus fumigatus, DSM819)?
**A.** The MIC was over 100 µM.

**Q.** And the “MIC Aspergillus fumigatus (DSM819)” value [27]?
**A.** The value was “inactive”.

**Q.** And the MIC [28]?
**A.** The MIC was 12.5 µM (≈ 4.82 µg/mL).

**Q.** What about the MIC (M. smegmatis ATCC700084) of the same compound?
**A.** The MIC was 50 µM (≈ 19.3 µg/mL).

**Q.** And the “TI with MIC of 0.78 µM, HaCaT” value [29]?
**A.** The value was 344.2.
